Where two headings read alike, the source gives them in different places.
Key:
Aurora-A kinase [1] = molecular target: T1, Aurora-A kinase (Homo sapiens, UniProt O14965); settings: Table S1, ChEMBL, cited from earlier work
T1 construct: purchased Invitrogen (Carlsbad, CA, USA)
T1 sequence (O14965 1-403): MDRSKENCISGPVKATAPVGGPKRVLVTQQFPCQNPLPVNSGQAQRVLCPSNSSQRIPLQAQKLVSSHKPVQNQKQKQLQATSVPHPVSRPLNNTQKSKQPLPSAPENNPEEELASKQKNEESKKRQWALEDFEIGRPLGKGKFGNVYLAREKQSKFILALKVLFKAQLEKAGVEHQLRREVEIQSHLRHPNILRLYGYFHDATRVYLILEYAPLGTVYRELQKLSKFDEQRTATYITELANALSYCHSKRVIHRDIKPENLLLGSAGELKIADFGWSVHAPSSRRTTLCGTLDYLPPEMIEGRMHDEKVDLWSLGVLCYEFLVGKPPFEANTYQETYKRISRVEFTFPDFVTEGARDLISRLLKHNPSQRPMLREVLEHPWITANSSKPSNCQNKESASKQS

Aurora-A kinase [2] = molecular target: T1, Aurora-A kinase; test: FRET-based Z'-LYTE kinase enzyme inhibition assay; type: biochemical; settings: 10 µM, duplicates, Z'-LYTE
Procedure: This bioassay was conducted using Z′-LYTE® kinase assay (Invitrogen, Carlsbad, CA, USA) [68, 69]. This biochemical assay depends on fluorescence emission as detection method utilizing a synthetic fluorescence resonance energy transfer (FRET) peptide with two fluorophores: coumarin that work as donor and fluorescein as acceptor [69]. Each hit or compound was dissolved in DMSO to form 10 mM stock solution. Hits were screened at 10 μM concentration. The bioassay was performed in black 384-well plate. For each assay, 100 nL of tested compound stock solution (10 mM) was mixed with 2.4 μL kinase buffer, 5 μL (peptide substrate/Aurora-A Kinase) mixture, and 2.5 μL ATP solution.
The tests were conducted in duplicates.

| Compound | % Inhibition at 10 µM (Aurora-A kinase [2]) | further results |
| --- | --- | --- |
| COc1cc2c(Nc3cc(CC(=O)Nc4cccc(F)c4F)[nH]n3)ncnc2cc1OCCCN1CCC(CO)CC1 [Compound 5] |  | Ki (Aurora-A kinase [1]; ref Mortlock, et al., 2007): 410 nM |
| COc1ccc(CC(=O)c2ccc(OC)c(OC)c2)cc1OC [Hit 117] | 7% |  |
| CCNc1nc(C)c(-c2ccnc(Nc3cc(OC)c(OC)c(OC)c3)n2)s1 [Compound 70] |  | Ki (Aurora-A kinase [1]; ref Wang, et al., 2010): 3 nM |
| COc1cc(Nc2nccc(-c3sc(C)nc3C)n2)cc(OC)c1OC [Compound 68] |  | Ki (Aurora-A kinase [1]; ref Wang, et al., 2010): 0.4 nM |
| CC[C@@H](C(=O)c1ccc(OC)cc1)c1ccc(OC)cc1 [Hit 119] | -3% |  |
| CNc1nc(C)c(-c2ccnc(Nc3cc(OC)c(OC)c(OC)c3)n2)s1 [Compound 69] |  | Ki (Aurora-A kinase [1]; ref Wang, et al., 2010): 1 nM |
| C[n+]1c(/C=C/c2ccc([N+](=O)[O-])cc2)oc2ccccc21 [Hit 111] | 1% |  |
| COc1ccc(C2OC(c3ccc(OC)cc3)c3ccccc32)cc1 (stereo not drawn) [Hit 133] | 3% |  |
| COc1ccc(C=Cc2ccc(Cl)cc2)cc1 [Hit 128] | -5% |  |
| CCC(=O)Nc1ccc(Sc2nc(Nc3cc(C)[nH]n3)cc(C(C)(C)C)n2)cc1 [Compound 54] |  | Ki (Aurora-A kinase [1]; ref Bebbington, et al., 2009): 10 nM |
| COc1ccc(CNCCNCc2ccc(OC)cc2)cc1 [Hit 100] | 7% |  |
| COc1ccc(C(=O)OCc2ccc3c(c2)OCO3)cc1 [Hit 90] | -2% |  |
| COc1cc2c(Nc3cc(CC(=O)Nc4cccc(F)c4)[nH]n3)ncnc2cc1OCCCN(C)CCO [Compound 16] |  | Ki (Aurora-A kinase [1]; ref Mortlock, et al., 2007): 65 nM |
| COc1cc2c(Nc3cc(CC(=O)Nc4ccccc4)[nH]n3)ncnc2cc1OCCCN1CCC(CO)CC1 [Compound 1] |  | Ki (Aurora-A kinase [1]; ref Mortlock, et al., 2007): 1600 nM |
| COc1ccc(C[N+](C)(C)Cc2ccc(OC)cc2)cc1 [Hit 120] | -2% |  |
| Cc1cc(Nc2nc(-c3ccccc3)nc3ccccc23)n[nH]1 [Compound 27] |  | Ki (Aurora-A kinase [1]; ref Pollard and Mortimore, 2009): 58 nM |
| COc1ccc(CCC(N)c2ccc(OC)cc2)cc1 (stereo not drawn) [Hit 122] | -1% |  |
| CNc1ccc(Nc2nccc(-c3sc(C)nc3C)n2)cc1 [Compound 66] |  | Ki (Aurora-A kinase [1]; ref Wang, et al., 2010): 18 nM |
| O=C(CCCc1ccc([N+](=O)[O-])cc1)c1ccccc1 [Hit 153] | -6% |  |
| COc1cc2c(Nc3cc(CC(=O)Nc4ccc(F)cc4)[nH]n3)ncnc2cc1OCCCN1CCC(CO)CC1 [Compound 4] |  | Ki (Aurora-A kinase [1]; ref Mortlock, et al., 2007): 2000 nM |
| CCC(=Cc1ccc(OC)cc1)C(=O)c1ccc(OC)cc1 [Hit 126] | -2% |  |
| COc1cccc(CC(C)NCC(O)c2ccc(O)c(O)c2)c1 (stereo not drawn) [Hit 152] | 1% |  |
| COc1ccc(N=[N+]([O-])c2ccc(OC)cc2)cc1 [Hit 148] | -3% |  |
| COc1ccc(C=NCCN=Cc2ccc(OC)cc2)cc1 [Hit 129] | 3% |  |
| COc1ccc(CCc2ccc3cc(OC)ccc3n2)cc1 [Hit 98] | -5% |  |
| COc1ccc(C(=O)Oc2ccc(C=O)cc2OC)cc1 [Hit 109] | -142% |  |

| Compound | % Inhibition at 10 µM (Aurora-A kinase [2]) | further results |
| --- | --- | --- |
| COc1ccc(-c2oc3ccc(C)cc3c(=O)c2O)cc1 [Hit 80] | 20% |  |
| NC[C@@H](O)c1ccc(Nc2ccnc3cc(Cl)ccc23)cc1 [Hit 104] | 23% |  |
| CC(=NNS(=O)(=O)c1ccc([N+](=O)[O-])cc1)c1ccc(C)cc1 [Hit 86] | 12% |  |
| CN(C)CC(O)c1ccc(C=Cc2ccc(Cl)cc2)cc1 (stereo not drawn) [Hit 143] | -72% |  |
| O=[N+]([O-])c1ccc(COc2ccc(Cl)cc2)cc1 [Hit 142] | -3% |  |
| COc1ccc(OC(=O)c2ccc(Cl)cc2)cc1 [Hit 127] | 0% |  |
| COc1cccc(/C=C/C(=O)/C=C/C=C/c2ccccc2)c1 [Hit 96] | 0% |  |
| COc1ccc(C=NNS(=O)(=O)c2ccc(NC(C)=O)cc2)cc1 [Hit 89] | 2% |  |
| COc1ccc(NC(=O)c2ccc(Cl)cc2)cc1 [Hit 138] | -1% |  |
| COc1ccc2c(ccc[n+]2CC(=O)c2ccc(SC)cc2)c1 [Hit 93] | 14% |  |
| O=C(CNCCCc1ccccc1)c1ccc(O)c(O)c1 [Hit 147] | 14% |  |
| CCOc1ccc(NC(=O)Nc2ccc(OCC)cc2)cc1 [Hit 125] | -1% |  |
| COc1ccc(C=Cc2ccc3ccccc3n2)cc1 [Hit 121] | -2% |  |
| CCNC(Cc1ccc(OC)cc1)c1ccc(OC)cc1 (stereo not drawn) [Hit 91] | -2% |  |
| COc1ccc(C(=O)CCCCC(=O)c2ccc(OC)cc2)cc1 [Hit 114] | 4% |  |
| O=C(NC(Cc1ccc2c(c1)OCO2)C(=O)O)c1ccccc1 (stereo not drawn) [Hit 139] | 6% |  |
| COc1ccc(/C=N/N=C/c2ccc(OC)cc2)cc1 [Hit 82] | 5% |  |
| O=C(NCCc1ccccc1)c1ccc([N+](=O)[O-])cc1 [Hit 87] | -4% |  |
| O=C(OCC=Cc1ccccc1)c1ccc([N+](=O)[O-])cc1 [Hit 131] | 3% |  |
| Cc1cc[n+](CC(=O)c2ccc([N+](=O)[O-])cc2)cc1 [Hit 146] | 4% |  |
| CCOC(=O)C(=Cc1cc(C)c(OC(C)=O)c(OC)c1)NC(=O)c1ccccc1 [Hit 97] | -4% |  |
| COc1ccc(CC(=O)c2ccc(OC)cc2)cc1 [Hit 150] | -3% |  |
| NOS(=O)c1ccc(N=CC=Cc2ccccc2)cc1 (stereo not drawn) [Hit 116] | 21% |  |
| COc1ccc(CC(C)NCC(O)c2ccc(O)c(O)c2)cc1 (stereo not drawn) [Hit 95] | 30% |  |
| COc1ccc(N=Nc2ccc(OC)cc2)cc1 [Hit 134] | 8% |  |
| Cc1ccc[n+](CC(=O)c2ccc([N+](=O)[O-])cc2)c1 [Hit 106] | 6% |  |

| Compound | % Inhibition at 10 µM (Aurora-A kinase [2]) | further results |
| --- | --- | --- |
| CC(=O)Nc1ccc(S(=O)(=O)NN=Cc2ccc(C)cc2)cc1 [Hit 102] | 6% |  |
| COc1ccc(/N=N/c2ccc(O)cc2)cc1 [Hit 135] | 7% |  |
| Oc1ccc(/C=C/c2ccc(Cl)cc2)cc1 [Hit 151] | -7% |  |
| COc1ccc(NC(=O)CC(=O)Nc2ccc(OC)cc2)cc1 [Hit 101] | 6% |  |
| O=[N+]([O-])c1cccc(S(=O)(=O)Nc2ccc(Cl)cc2)c1 [Hit 118] | 7% |  |
| COc1ccc(C(=O)C=Cc2ccc3c(c2)OCO3)cc1 [Hit 113] | 8% |  |
| COc1ccc(C(N)C(O)c2ccc(OC)cc2)cc1 (stereo not drawn) [Hit 145] | 0% |  |
| CC(Cc1ccccc1)NCC(=O)c1ccc(O)c(O)c1 (stereo not drawn) [Hit 107] | 25% |  |
| COc1ccc(C(=O)OCc2ccc3c(c2)OCO3)cc1 [Hit 99] | 5% |  |
| COc1cccc(C(N)CCc2cc(OC)c(OC)c(OC)c2)c1 (stereo not drawn) [Hit 124] | -2% |  |
| COc1ccc(NC(=O)c2ccc(Cl)cc2Cl)cc1 [Hit 108] | -7% |  |
| COc1ccc(C(=O)[C@H](CN(C)C)c2ccc(OC)cc2)cc1 [Hit 105] | 1% |  |
| CCOc1ccc(N=C(C)Nc2ccc(OCC)cc2)cc1 [Hit 110] | 3% |  |
| COc1ccc(C(=O)C(O)c2ccc(OC)cc2)cc1 (stereo not drawn) [Hit 149] | -1% |  |
| CNC(Cc1ccc(OC)cc1)c1ccc(OC)cc1 (stereo not drawn) [Hit 154] | -2% |  |
| COc1ccc([C@@H](O)Cc2ccc(Cl)cc2)cc1 [Hit 140] | -7% |  |
| O=[N+]([O-])c1ccc(S(=O)(=O)NN=Cc2ccco2)cc1 [Hit 136] | 5% |  |
| CC(=O)Nc1ccc(S(=O)(=O)NN=Cc2cc(Cl)ccc2O)cc1 [Hit 103] | 12% |  |
| CC(Cc1ccccc1)=NNS(=O)(=O)c1ccc([N+](=O)[O-])cc1 [Hit 83] | 7% |  |
| O=C(Oc1ccc(Cl)cc1Cl)c1ccc([N+](=O)[O-])cc1 [Hit 137] | -30% |  |
| CCCCNC(C(=O)c1ccc(OC)cc1)c1ccc(OC)cc1 (stereo not drawn) [Hit 144] | 0% |  |
| COc1ccc(C(=O)OCc2ccc3c(c2)OCO3)cc1 [Hit 94] | -2% |  |
| Cc1ccc(S(=O)(=O)Nc2ccc3cc([N+](=O)[O-])ccc3c2[N+](=O)[O-])cc1 [Hit 132] | 22% |  |
| COc1ccc(CCCCCCc2ccc(OC)cc2)cc1 [Hit 115] | -1% |  |
| COc1ccc(C(Cc2ccc(Cl)cc2)NCCO)cc1 (stereo not drawn) [Hit 92] | 3% |  |
| CCCCN[C@@H](c1ccc(OC)cc1)[C@H](O)c1ccc(OC)cc1 [Hit 81] | 3% |  |
